Reference: ChEMBL document CHEMBL6127119 (J Med Chem, 2024)
Converted amounts (≈) assume the structure as drawn. The source made the active and inactive calls. No cut-off for these calls is given here.

Assays:
Staphylococcus aureus [1] = experiment: Antibacterial activity against methicillin-susceptible Staphylococcus aureus incubated for 16 to 24 hrs by CLSI based broth microdilution method; assay type: functional; settings: time 16-24 hrs
Staphylococcus aureus [2] = experiment: Antibacterial activity against vancomycin-intermediate Staphylococcus aureus incubated for 16 to 24 hrs by CLSI based broth microdilution method; assay type: functional; settings: time 16-24 hrs
Enterococcus faecium [3] = experiment: Antibacterial activity against vancomycin-resistant Enterococcus faecium harboring VanA phenotype incubated for 16 to 24 hrs by CLSI based broth microdilution method; assay type: functional; settings: time 16-24 hrs
Enterococcus faecium [4] = experiment: Antibacterial activity against vancomycin-resistant Enterococcus faecium harboring VanM phenotype incubated for 16 to 24 hrs by CLSI based broth microdilution method; assay type: functional; settings: time 16-24 hrs
Enterococcus faecium [5] = experiment: Antibacterial activity against vancomycin-resistant Enterococcus faecium harboring VanB phenotype incubated for 16 to 24 hrs by CLSI based broth microdilution method; assay type: functional; settings: time 16-24 hrs
Escherichia coli = experiment: Antibacterial activity against Escherichia coli AB1157 incubated for 16 to 24 hrs by CLSI based broth microdilution method; assay type: functional; settings: time 16-24 hrs
Acinetobacter baumannii = experiment: Antibacterial activity against Carbapenem-resistant Acinetobacter baumannii clinical isolate incubated for 16 to 24 hrs by CLSI based broth microdilution method; assay type: functional; settings: time 16-24 hrs
Klebsiella pneumoniae = experiment: Antibacterial activity against Klebsiella pneumoniae clinical isolate incubated for 16 to 24 hrs by CLSI based broth microdilution method; assay type: functional; settings: time 16-24 hrs
Pseudomonas aeruginosa = experiment: Antibacterial activity against Pseudomonas aeruginosa PAO1 incubated for 16 to 24 hrs by CLSI based broth microdilution method; assay type: functional; settings: time 16-24 hrs
[6] = Half life in CD-1 mouse at 10 mg/kg, iv measured for 24 hrs by UPLC analysis; assay type: ADME, organism-based; settings: in vivo
[7] = AUClast in CD-1 mouse at 10 mg/kg, iv measured for 24 hrs by UPLC analysis; assay type: ADME, organism-based; settings: in vivo
[8] = AUC (infinity) in CD-1 mouse at 10 mg/kg, iv measured for 24 hrs by UPLC analysis; assay type: ADME, organism-based; settings: in vivo
[9] = Clearance in CD-1 mouse at 10 mg/kg, iv measured for 24 hrs by UPLC analysis; assay type: ADME, organism-based; settings: in vivo
[10] = MRT (infinity) in CD-1 mouse at 10 mg/kg, iv measured for 24 hrs by UPLC analysis; assay type: ADME, organism-based; settings: in vivo
[11] = Volume of distribution at steady state in CD-1 mouse at 10 mg/kg, iv measured for 24 hrs by UPLC analysis; assay type: ADME, organism-based; settings: in vivo, read-out: Vdss
[12] = Toxicity in BALB/c mouse infected with methicillin-resistant Staphylococcus aureus MRSA252 assessed as survival rate at 10 mg/kg, iv for 7 days; assay type: organism-based; settings: in vivo, 168 h, time 7 day
[13] = Toxicity in BALB/c mouse infected with methicillin-resistant Staphylococcus aureus MRSA252 assessed as survival rate at 20 mg/kg, iv for 7 days; assay type: organism-based; settings: in vivo, 168 h, time 7 day
Staphylococcus aureus [14] = experiment: Antibacterial activity against Staphylococcus aureus Mu50 assessed as fold decrease in MIC at 1:1 ratio of compound and Ac2KAA at […] incubated for 16 to 24 hrs by absorbance based assay relative to control; assay type: functional; settings: dose 128 µg/ml; time 16-24 hrs
Staphylococcus aureus [15] = experiment: Antibacterial activity against Staphylococcus aureus Mu50 at 1:1 ratio of compound and Ac2KAA at […] incubated for 16 to 24 hrs by absorbance based assay; assay type: functional
Staphylococcus aureus [16] = experiment: Induction of cytoplasmic membrane permeabilization in methicillin-resistant Staphylococcus aureus MRSA252 at […] measured for 40 mins by PI/NPN staining based analysis; assay type: functional, organism-based; settings: dose 128.0 µg/ml
Enterococcus faecalis = experiment: Induction of inner membrane permeabilization in Enterococcus faecalis ATCC29212 at […] measured for 20 mins by DiSC3(5) staining based analysis; assay type: functional, organism-based; settings: dose 128.0 µg/ml
Staphylococcus aureus [17] = experiment: Induction of drug resistance in vancomycin-sensitive Staphylococcus aureus MRSA252 assessed as fold increase in MIC measured after 16 days of serial passages by broth microdilution method; assay type: functional; settings: time 16 day
Staphylococcus aureus [18] = experiment: Post-antibiotic effect in Staphylococcus aureus MRSA252 assessed as change in bacterial titer at 10 times measured after 2 hrs; assay type: functional
Staphylococcus aureus [19] = experiment: Post-antibiotic effect in Staphylococcus aureus MRSA252 assessed as change in bacterial titer at 20 times measured after 2 hrs; assay type: functional
Staphylococcus aureus [20] = experiment: Post-antibiotic effect in Staphylococcus aureus MRSA252 assessed as time of effect at 10 to 20 times; assay type: functional

For `CC(C)C[C@@H](N)C(=O)N[C@H]1C(=O)N[C@@H](CC(N)=O)C(=O)N[C@H]2C(=O)N[C@H]3C(=O)N[C@H](C(=O)N[C@H](C(=O)O)c4cc(O)cc(O)c4-c4cc3ccc4O)[C@H](O)c3ccc(c(Cl)c3)Oc3cc2cc(c3O[C@@H]2O[C@H](CO)[C@@H](O)[C@H](O)[C@H]2O[C@H]2C[C@](C)(N)[C@H](O)[C@H](C)O2)Oc2ccc(cc2Cl)[C@H]1O`, which MIC (Staphylococcus aureus [1]) is on record?
The MIC was 0.5 µg/mL (≈ 0.348 µM).

What about the MIC (Staphylococcus aureus [2]) of the same molecule?
Its MIC is 2 µg/mL (≈ 1.39 µM).

What about the MIC (Enterococcus faecium [3]) of the same molecule?
The MIC was > 128 µg/mL.

What about the MIC (Enterococcus faecium [4]) of the same molecule?
The MIC was 128 µg/mL (≈ 89.2 µM).

What about the MIC (Enterococcus faecium [5]) of the same molecule?
Its MIC is 128 µg/mL (≈ 89.2 µM).

What about the MIC (Escherichia coli) of the same molecule?
Its MIC is > 128 µg/mL.

What about the MIC (Acinetobacter baumannii) of the same molecule?
The MIC was > 128 µg/mL.

And the MIC (Klebsiella pneumoniae)?
Its MIC is > 128 µg/mL.

What about the MIC (Pseudomonas aeruginosa) of the same molecule?
The MIC was > 128 µg/mL.

What about the half-life [6] of the same molecule?
Its half-life is 31.8 min.

What about the AUC(0-t) at 24 h [7] of the same molecule?
Its AUC(0-t) at 24 h is 5210 ng·h/mL.

What about the AUC(0-inf) [8] of the same molecule?
Its AUC(0-inf) is 6300 ng·h/mL.

And the clearance [9]?
Its clearance is 27.3 mL/min/kg.

What about the MRT inf [10] of the same molecule?
Its MRT inf is 33.6 min.

And the Vd [11]?
The Vd was 0.919 L/kg.

What about the Activity [12] of the same molecule?
Its Activity is 75%.

What about the Activity [13] of the same molecule?
Its Activity is 62.5%.

And the “fold change (FC)” value (Staphylococcus aureus [14])?
Its value is >32.

And the MIC (Staphylococcus aureus [15])?
Its MIC is > 128 µg/mL.

What about the Activity (Staphylococcus aureus [16]) of the same molecule?
Its Activity is “inactive”.

And the Activity (Enterococcus faecalis)?
Its Activity is “inactive”.

And the “fold change (FC)” value (Staphylococcus aureus [17])?
Its value is 4.

What about the Activity (Staphylococcus aureus [18]) of the same molecule?
The Activity was 1 log10CFU/ml.

What about the Activity (Staphylococcus aureus [19]) of the same molecule?
Its Activity is 0.2 log10CFU/ml.

And the Time (Staphylococcus aureus [20])?
The Time was 1 h.
